Assay results from PMC11331138, “Leveraging coevolutionary insights and AI-based structural modeling to unravel receptor–peptide ligand-binding mechanisms” (Proceedings of the National Academy of Sciences of the …, 2024).

T1: MIK2 (MALE DISCOVERER 1-INTERACTING RECEPTOR-LIKE KINASE 2) ectodomain, wild type (Arabidopsis thaliana, UniProt Q8VZG8 44-709)
T1 chain: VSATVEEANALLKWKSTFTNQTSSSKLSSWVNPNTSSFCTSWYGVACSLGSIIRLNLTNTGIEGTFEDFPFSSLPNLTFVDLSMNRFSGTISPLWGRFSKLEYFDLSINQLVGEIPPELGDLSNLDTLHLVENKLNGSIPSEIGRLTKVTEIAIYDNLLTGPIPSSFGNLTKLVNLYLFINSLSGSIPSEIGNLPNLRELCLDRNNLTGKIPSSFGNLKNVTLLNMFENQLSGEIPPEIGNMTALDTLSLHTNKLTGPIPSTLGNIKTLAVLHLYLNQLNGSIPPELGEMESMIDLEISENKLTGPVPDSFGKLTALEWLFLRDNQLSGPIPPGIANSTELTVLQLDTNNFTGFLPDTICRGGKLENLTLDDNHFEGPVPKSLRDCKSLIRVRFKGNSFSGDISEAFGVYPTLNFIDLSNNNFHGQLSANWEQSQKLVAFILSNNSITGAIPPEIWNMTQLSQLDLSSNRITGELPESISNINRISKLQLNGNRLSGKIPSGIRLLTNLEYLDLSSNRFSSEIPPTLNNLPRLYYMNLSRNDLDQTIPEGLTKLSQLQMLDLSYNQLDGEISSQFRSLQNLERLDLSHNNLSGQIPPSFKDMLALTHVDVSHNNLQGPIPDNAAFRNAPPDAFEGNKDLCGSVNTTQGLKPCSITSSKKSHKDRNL


Experiments:
[1] = test system: D. strictus MIK2; test: ROS production, D. strictus MIK2 expressed in N. benthamiana; assay type: cell-based, Diptychocarpus strictus; settings: 1 μM SCOOP
Protocol: (§1) removed and ROS production was measured upon addition of a 100-μL assay solution which contained 10 μg/mL
(§2) horseradish peroxidase (P6782, Merck), 10 mM luminol and the treatment (1 μM SCOOP, 0.1 μM flg22 or H2O).
(§3) Luminescence was quantified with a HIGH-RESOLUTION PHOTON COUNTING SYSTEM (HRPCS218, Photek). Four
(§4) technical replicates per biological replicate (specified in Fig. S2) were quantified for each treatment, significant
(§5) differences were determined by performing a two-group Mann-Whitney U Test between each SCOOP treatment
(§6) and the mock treatment. R and the R-packages dplyr (v1.1.2), ggpubr (v.0.6.0), and ggplot2 (v3.4.2) were used to
(§7) analyze and plot the data. The resulting figure was edited in Corel-DRAW Home & Student x7.
(§8) Functional validation MIK2 homologues
(§9) All constructs were created using a hierarchical modular cloning approach facilitated by the MoClo toolkit and the
(§10) MoClo Plant Parts kit (25, 26). For recombinant expression, we used the previously published Arabidopsis MIK2
(§11) sequence (L0 level backbone, CZLp4829) (27), and MIK2 homologues were synthesized with domesticated BsaI […]
(§12) while using diverse Arabidopsis SCOOPs (AA sequences, Dataset S1) and fl g22. Biological replicates were quantified […]
(§13) H2O and rested for a minimum of 30 min in the dark. Two readings were taken in a TECAN SPARK plate reader every […]

[2] = test system: R. islandica MIK2; test: ROS production, R. islandica MIK2 expressed in N. benthamiana; assay type: cell-based, Rorippa islandica; settings: 1 μM SCOOP
Protocol: as §1, §2, §3, §4, §5, §6, §7, §8, §9, §10, §11, §12, §13

[3] = test system: Arabidopsis Col-0; settings: selection criterion; ref [17]; cited from earlier work
Excerpt: To test the conservation of plant responses to SCOOPs, we measured the production of ROS—a hallmark of LRR-RK activation—triggered by SCOOPs. […] The SCOOP SxS motif is unique across known plant-secreted signaling peptides in contrast to the N-terminal asparag ... || The S5 and S7 binding pockets were functionally validated by testing MIK2 variants using three experimental approaches; A) SCOOP12-binding to MIK2 ectodomain in vitro, B) SCOOP12-induced complex formation with its coreceptor BAK1 in vivo, and C) ROS production upon SCOOP treatments as a marker for receptor complex activation (Fig. 4 and SI Appendix, Fig. S6).

[4] = test system: B. rapa MIK2; test: ROS production, B. rapa MIK2 expressed in N. benthamiana; assay type: cell-based, Brassica rapa; settings: 1 μM SCOOP
Protocol: as §1, §2, §3, §4, §5, §6, §7, §8, §9, §10, §11, §12, §13

[5] = target: MIK2 ectodomain S292A (S7 binding pocket variant) (Arabidopsis thaliana, UniProt Q8VZG8 44-709, S292A); test: ITC
Chain of MIK2 ectodomain S292A (S7 binding pocket variant) (Q8VZG8 44-709 S292A): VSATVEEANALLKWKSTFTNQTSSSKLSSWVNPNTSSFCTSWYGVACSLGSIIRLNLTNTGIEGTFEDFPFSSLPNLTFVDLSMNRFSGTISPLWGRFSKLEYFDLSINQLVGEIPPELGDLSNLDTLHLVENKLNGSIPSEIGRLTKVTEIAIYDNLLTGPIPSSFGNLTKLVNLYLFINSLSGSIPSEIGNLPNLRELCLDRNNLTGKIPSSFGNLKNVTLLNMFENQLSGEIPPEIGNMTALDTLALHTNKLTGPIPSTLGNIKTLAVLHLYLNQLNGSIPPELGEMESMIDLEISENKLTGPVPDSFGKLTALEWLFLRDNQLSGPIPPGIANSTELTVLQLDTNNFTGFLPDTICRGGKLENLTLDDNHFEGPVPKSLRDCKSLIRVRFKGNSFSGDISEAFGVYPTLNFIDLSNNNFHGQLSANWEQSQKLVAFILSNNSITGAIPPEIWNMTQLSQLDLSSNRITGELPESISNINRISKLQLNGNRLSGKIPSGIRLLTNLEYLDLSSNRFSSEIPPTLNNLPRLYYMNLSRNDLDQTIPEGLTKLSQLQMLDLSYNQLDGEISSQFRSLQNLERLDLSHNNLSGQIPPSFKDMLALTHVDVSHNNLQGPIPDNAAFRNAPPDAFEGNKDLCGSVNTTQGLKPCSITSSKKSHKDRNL

[6] = target: T1, MIK2 (MALE DISCOVERER 1-INTERACTING …); test: ITC

Molecule | SCOOP-induced ROS production (in words) [1] | SCOOP-induced ROS production (in words) [2] | ROS production upon SCOOP treatment in Arabidopsis [3] | SCOOP-induced ROS production (in words) [4] | Kd [5] | Kd [6]
YVPPSKSRRGKGP [SCOOP16] | conferred responsiveness | conferred responsiveness | robust ROS production | – | – | –
RVPRSKSPPDRQW [SCOOP24] | – | – | robust ROS production | did not lead to significant ROS production | – | –
PVRSSQSSQAGGR [SCOOP12 (SERINE RICH ENDOGENOUS PEPTIDE 12), synthetic peptide] | – | – | – | – | 1.24 µM | 2.12 µM
